Assay results published in patent US20250249110A1, “ANTIMICROBIAL PEPTIDE DERIVATIVE AND USE THEREOF” (SICHUAN UNIVERSITY, priority 2016, published 2025).
Where a SMILES comes first, the peptide text is derived from it. The star is where a group is joined. Succinyl(4-O-cholesteryl) = CC(C)CCC[C@@H](C)[C@H]1CC[C@H]2[C@@H]3CC=C4C[C@@H](OC(=O)CCC(=O)*)CC[C@]4(C)[C@H]3CC[C@]12C

Experiments:
[1] = tested on: Staphylococcus aureus 33591; test: Intra-abdominally infected mouse model; type: in vivo; settings: intravenous administration
Experimental: The anti-infection activity of DP7-C is determined by the intra-abdominally infected models. […]
The experimental steps are as follows: • (1) Activate Staphylococcus aureus 33591 with MHB the day before the experiment, wash the activated strains twice with normal saline on the day of the experiment, and determine the concentration of bacterial liquid for later use. • (2) To establish an abdominally infected mouse model, intraperitoneally inject the bacterial solution of 1.5×10^8 cfu/0.5 mL into each mouse. • (3) Intravenously inject the drug by group after one hour of infection, 0.1 mL/mouse. • (4) 24 h later, intraperitoneally inject 5 mL of normal saline into the mouse, gently massage the abdomen, kill the mouse and disinfect with 75% alcohol. After 5 min, scissor the abdominal cavity epithelium, make a small opening in the abdominal cavity, draw ascites as much as possible from the opening with a 1 ml syringe, and then transfer to a sterile EP tube for mixing. • (5) Dilute with normal saline at a dilution of, for example, 10×, 100×, 1000× and 10000×; take three bacterial solutions with suitable concentrations, 20 μL each, coat the MHA plate and incubate in a bacteria incubator overnight. • (6) Select a plate with 20-200 colonies and convert and calculate the amount of bacteria per milliliter in 5 milliliters of ascites.

[2] = tested on: macrophages, neutrophils and monocytes in the abdominal cavity; test: Detection of activated immune-related cells in abdominal cavity (flow cytometry); type: in vivo, mouse; settings: 24 h after 200 μL of 1 mg/mL i.p.
Experimental: Grouping: The mice are randomly divided into two groups (NS group and DP7-C group) with 5 mice in each group.
Each mouse in the DP7-C group is given 200 μL of 1 mg/mL DP7-C, while each mouse in the NS group is injected with 200 μL of normal saline. The mice of both groups are killed 24 h later. Each mouse is intraperitoneally injected with 5 mL of normal saline. By gently massaging the abdomen, the ascites in the abdominal cavity is aspirated to calculate the cell concentration and total cell count there. The lymphocyte typing of the ascites is detected by a flow cytometry, the percentage of macrophages, neutrophils and inflammatory monocytes in total cells is analyzed, and the number of macrophages, neutrophils and inflammatory monocytes is calculated according to the results of flow cytometry and the total number of cells in ascites.

[3] = tested on: YAC-1 cells; test: NK cell killing activity after immunization (LDH release); type: cell-based, mouse; settings: splenic lymphocytes 48 h after primary immunization
Experimental: Innate immunity plays an important role in anti-tumor immunity. We detected the killing activity of mouse NK cells after immunization with DP7-C adjuvant.
After 48 h of primary immunization, kill the mice by the cervical dislocation, and isolate splenic lymphocyte from the lymphocyte separation medium as effector cells.
Resuscitate and incubate YAC-1 cells, transfer one day before the experiment, and keep 2×10^6/20 ml. Stain with trypan blue. Available when activity is more than 95%.
• (1) Add target cells and effector cells into a 96-well plate (ratio of target cells to effector cells: 1:25, 1:50, 1:100, 1:200 as per 10,000 target cells per well) and incubate at 37° C. for 4 h. • (2) Centrifuge at 250 g, and take supernatant for LDH releasing test.

[4] = tested on: NY-ESO-1+B16 tumor cells; test: NY-ESO-1 vaccine, preventive and therapeutic NY-ESO-1+ B16 tumor models; type: in vivo, mouse; settings: both preventive and therapeutic model; NY-ESO-1 protein antigen
Experimental: The specific steps are as follows: • (1) Vaccine preparation
Incubate 20 μg of CpG and 40 μg of DP7-C at 37° C. for 15 min, add 5 μg of NY-ESO-1 protein, and replenish to a volume of 100 μl with sterile PBS. • (2) Grouping and dosage regimen
In this study, animal experiments are divided into […]: NS, CpG, DP7-C and CpG/DP7-C, 10 mice for each group, and the dosage of each mouse is as follows: • (1) NS group: 100 μl of PBS; • (2) CpG group: 5 μg of NY-ESO-1 protein+20 μg of CpG; • (3) DP7-C group: 5 μg of NY-ESO-1 protein+40 μg of DP7-C; • (4) CpG/DP7-C group: 5 μg of NY-ESO-1 protein+20 μg of CpG+40 μg DP7-C;
The total dosage of each mouse is 100 μl; if the dosage is less than 100 μl, sterile PBS may be added to reach 100 μl. • (3) Preventive immunity tumor model: perform subcutaneous immunotherapy at multiple sites on weeks 0, 2 and 4, and detect total antibody titers before inoculate tumor on week 5. Subcutaneously inoculate the tumor cells NY-ESO-1+B16: […] at the back of each mouse. After the tumor grows out, measure it at intervals of 3 days. Calculation formula of tumor volume: 0.52×length×width^2. Therapeutic immune tumor model: subcutaneously inoculate 2×10^5 of NY-ESO-1^+B16 tumor cells at the back of each mouse on day 0, and immunize on day 5 (once a week, for 3 consecutive times). Measure at intervals of 3 days and observe the survival time after the tumor grows out.

[5] = tested on: C26 mouse colon cancer peritoneal metastasis; test: C26 mouse colon cancer peritoneal metastasis model; type: in vivo
Experimental: In order to further characterize the application potential of DP7-C micelles in tumor therapy, we established a C26 mouse colon cancer peritoneal metastasis model and used DP7-C to transmit anti-VEGF siRNA therapeutic genes for therapeutic research. • (1) Establishment of abdominal metastasis model: on day 0, female BALB/c mice aged 6-8 weeks are intraperitoneally injected with 0.1 ml of cell suspension (containing about 1×10^5 C26 cells). • (2) On day 3, mice are randomly divided into 4 groups, 8 mice for each group, and are labeled. • (3) Four groups of mice are intraperitoneally injected with 10 doses of normal saline (blank control group), blank DP7-C micelle (17.5 μg), DP7-C/no-sense control siRNA (Scramble siRNA) complex (17.5 μg/3.5 μg) or DP7-C/VEGF siRNA complex (17.5 μg/3.5 μg) respectively. • (4) On day 20, when the mice in the control group are already very weak, all the mice are killed by cervical dislocation; the tumor tissues in the abdominal cavity as well as the heart, liver, spleen, lung and kidney tissues are immediately collected, weighed and analyzed. The ascites of each group of mice is also collected and measured, and CD31 immunohistochemical staining is performed on tumor tissues of each experimental group. The collected heart, liver, spleen, lung and kidney tissues are analyzed by HE staining.

[6] = intraperitoneal injection, 10 doses, day 20

## CC[C@H](C)[C@H](NC(=O)[C@H](CCCNC(=N)N)NC(=O)[C@H](Cc1c[nH]c2ccccc12)NC(=O)[C@H](CCC(N)=O)NC(=O)[C@@H](NC(=O)CCC(=O)O[C@H]1CC[C@@]2(C)C(=CC[C@H]3[C@@H]4CC[C@H]([C@H](C)CCCC(C)C)[C@@]4(C)CC[C@@H]32)C1)C(C)C)C(=O)N[C@@H](CCCNC(=N)N)C(=O)N[C@H](C(=O)N[C@@H](C)C(=O)N[C@H](C(=O)N[C@H](C(=O)N[C@@H](CCCNC(=N)N)C(=O)N[C@@H](CCCCN)C(N)=O)[C@@H](C)CC)C(C)C)C(C)C [DP7-C, Chol-suc-VQWRIRVAVIRK-NH2] ({Succinyl(4-O-cholesteryl)}-VQWRIRVAVIRK-NH2)
[1]; DP7-C 1 mg/kg, VAN 20 mg/kg, vs NS group, p<0.01
  average colony forming unit (CFU) of Staphylococcus aureus: significantly lower than those in NS group
[1]; no statistical difference
  antibacterial effect compared with positive drug group: basically the same as that of the positive drug group
[2]
  total number of cells in the abdominal cavity: increased significantly
[2]; abdominal cavity, NS 2.7%
  percentage of monocytes: 32.8%
[2]; abdominal cavity, NS 38.8%
  percentage of macrophages: 50.8%
[3]
  NK cell killing activity: slightly strong NK cell killing activity
[4]
  tumor growth: inhibit tumor growth to some extent
[5]; heart, liver, spleen, lung, kidney
  HE staining of major organ tissues: no significant pathological changes
[5]; [6]
  average tumor weight: 7.94 ± 0.53 g
  volume of ascites (printed as average tumor weight): 1.17 ± 0.51 mL
